Values quoted from earlier work, collected in patent US6140347A, “Azetidine, pyrrolidine and piperidine derivatives as 5-HT receptor agonists” (Merck Sharp & Dohme Ltd., priority 1996, dated 2000).

Experiments:
[1] = system: human 5-HT1Dα and 5-HT1Dβ receptor subtypes; details: cf. WO-A-91/17174, Table 1
[2] = therapeutic doses

discrimination between the human 5-HT1Dα and 5-HT1Dβ receptor subtypes (in words) [1]: barely discriminates
SMILES: CNS(=O)(=O)Cc1ccc2[nH]cc(CCN(C)C)c2c1 [sumatriptan]
adverse cardiovascular events in humans (in words) [2]: certain adverse cardiovascular events
